Measurements taken from patent US10869863B2, “Multi-arm polymeric targeting anti-cancer conjugate” (priority 2016, dated 2020).

Assays:
[1] = tested on: human gastric cancer NCI-N87 transplanted tumor; assay: Inhibitory effect on in vivo tumor growth, human gastric cancer NCI-N87 cell strain transplanted tumor model in nude mice; conditions: 40 mg·kg^−1 (as active agent) IV Q4D × 3, n=5
Protocol: NCI-N87 cells in logarithmic phase of growth were collected. […] Cell suspension was aspirated with a 1 mL syringe, and injected subcutaneously to the anterior right armpit of the nude mice. Each animal was inoculated with 100 μL (5×10^6 cells/animal), and the NCI-N87 transplanted tumor model in nude mice was established. Animal status and the condition of tumor growth were observed regularly after inoculation, an electronic vernier caliper was used to measure the tumor diameters, the data was directly input to an Excel spreadsheet, and the tumor volumes were calculated. […] The tumor diameters were measured twice a week after the initiation of the experiment, the tumor volumes were calculated, and the body weights of the animals were weighed and recorded at the same time.
The calculation formula of the tumor volume (TV) was as follows: TV(mm^3)=l×w^2/2 wherein l represented the long diameter of a tumor (mm), and w represented the short diameter of a tumor (mm).
(§1) The first administration was initiated on the day of grouping, the experiment was ended after 21 days, and the volumes of administration were all 10 mL·kg^−1. […]
After the experiment was ended, the animals were euthanized (CO2) after the body weights were weighed and the tumor diameters were measured. The tumor tissues were excised and weighed, and the tumor weight inhibition rates were calculated. […]

[2] = tested on: human colon cancer HT-29 transplanted tumor; assay: Inhibitory effect on in vivo tumor growth, human colon cancer HT-29 transplanted tumor model in nude mice; conditions: HT-29 in female BALB/c nude mice; 40 mg·kg^−1 (as content of active agent) IV Q4D×3; experiment ended after 21 days; n=5
Protocol: HT-29 cells in logarithmic phase of growth were collected. […] Cell suspension was aspirated with a 1 mL syringe, and injected subcutaneously to the anterior right armpit of nude mice. Each animal was inoculated with 100 μL (6×10^6 cells/animal), and the HT-29 transplated tumor model in nude mice was established. Animal status and the condition of tumor growth were observed regularly after inoculation, an electronic vernier caliper was used to measure the tumor diameters, the data was directly input to an Excel spreadsheet, and the tumor volumes were calculated. […] The tumor diameters were measured twice a week after the initiation of the experiment, the tumor volumes were calculated, and the body weights of the animals were weighed and recorded at the same time.
The calculation formula of the tumor volume (TV) was as follows: TV(mm^3)=l×w^2/2
as §1
On the last day of the experiment, the animals were euthanized (CO2) after the body weights were weighed and the tumor diameters were measured. The tumor tissues were excised, weighed and photographed (respectively photographed according to the following combinations), and the tumor weight inhibition rates were calculated. […]

[3] = tested on: human breast cancer MDA-MB-231 transplanted tumor; assay: Inhibitory effect in human breast cancer MDA-MB-231 xenograft model in nude mice; assay type: in vivo; conditions: MDA-MB-231 in female BALB/c nude mice; 40 mg·kg^−1 IV Q4D×3; 3 weeks; n=5
Protocol: MDA-MB-231 cells were cultured in DMEM, which contained 10% fetal bovine serum FBS (GIBCO, USA). The cells were placed in a 37° C. incubator containing 5% CO2 to cultivate.
A subcutaneous tumor xenograft model in nude mice was established by cell inoculation method: tumor cells in logarithmic phase of growth were collected, counted and then resuspended in 1×PBS, and the concentration of the cell suspension was adjusted to 1×10^7/mL. 1 mL syringes (4 gauge needle) were used to inoculate the tumor cells to the right back of the nude mice subcutaneously, 1×10^6/0.1 mL/mice. […]
(§2) The experimental period lasted for 3 weeks, and the body weights and the tumor sizes of the animals were measured twice a week during the experiment. The clinical symptoms were observed and recorded daily. On the last day of the experiment, the animals were sacrificed, the body weights were weighed, and the tumors were excised, weighed and recorded by photographing.
(§3) The calculation formula of the tumor volume (TV) was: TV=a×b^2/2, wherein a and b represented the measured length and width of the tumor, respectively. The calculation formula of the relative tumor volume (RTV) was: RTV=Vt/V0, wherein V0 was the tumor volume measured at the time of grouping and first administration, and Vt was the tumor volume at the time of a measurement.

[4] = tested on: orthotopic U87MG brain glioma; assay type: in vivo, human; conditions: orthotopic U87MG brain glioma in nude mice; 40 mg·kg^−1 (as active agent) IV Q4D × 3; n=5
Protocol: U87MG cells in logarithmic phase of growth were collected. […] The cells were charged into a 50 mL centrifuge tube after being pipetted with a pipettor to make them evenly dispersed, and the centrifuge tube was placed in an ice box. Cell suspension was aspirated with a 1 mL syringe, 1 μL of human brain glioma cell (U87MG cells) cultured in vitro was inoculated (1×10^5 cells/animal) using microinjection method via the guidance of a stereotactic apparatus for animals, the orthotopic U87MG brain glioma model was established, and animal status was observed periodically after inoculation.
The first administration was initiated on the day of grouping, the experiment was ended after 21 days, and the volumes of administration were all 10 mL·kg^−1. Group 1 was a solvent control group, and was given blank solvent by intravenous injection via tail once every 4 days for a total of 3 times (Q4D×3).
The first administration was initiated on the day of grouping, the experiment was ended after 21 days, and the volumes of administration were all 10 mL·kg^−1.
Groups with 10-hydroxycamptothecin as the active agent (Groups 14 to 18). The first administration was initiated on the day of grouping, the experiment was ended after 21 days, and the volumes of administration were all 10 mL·kg^−1.
Groups with rubitecan as the active agent (Groups 19 to 23). […]
The survival time of the animals were recorded.

[5] = tested on: human pancreatic cancer MIA Paca-2 transplanted tumor; assay: Inhibitory effect in human pancreatic cancer MIA Paca-2 xenograft model in nude mice; assay type: in vivo; conditions: MIA Paca-2 in female BALB/c-nu/nu nude mice; 40 mg·kg^−1 IV Q4D×3; 3 weeks; n=5
Protocol: The cells were placed in a 37° C. incubator containing 5% CO2 to cultivate.
A subcutaneous tumor xenograft model in nude mice was established by cell inoculation method: tumor cells in logarithmic phase of growth were collected, counted and then resuspended in 1×PBS, and the concentration of the cell suspension was adjusted to 3×10^7/mL. 1 mL syringes (4 gauge needle) were used to inoculate the tumor cells to the right back of the nude mice subcutaneously, 3×10^6/0.1 mL/mice. […]
as §2, §3

CCc1c2c(nc3ccc(OC(=O)N4CCC(N5CCCCC5)CC4)cc13)-c1cc3c(c(=O)n1C2)COC(=O)[C@]3(O)CC [irinotecan]
Average relative tumor proliferation rate (% T/C) [1]: 63.2%
Relative tumor proliferation rate (% T/C) [2]: 69%
Relative tumor proliferation rate (% T/C) [3]: 44.8%^
Median survival time [4]: 27 days
Relative tumor proliferation rate (% T/C) [5]: 59.4%
